The text below walks through data of patent publication US20240246981A1, “[…] DERIVATIVES AS INHIBITORS OF […]-PEPTIDE CYCLOTRANSFERASE AND […]-PEPTIDE CYCLOTRANSFERASE LIKE PROTEIN” (Boehringer Ingelheim International GmbH, priority 2022, published 2024).

Series [1] concerns the target QPCTL (Homo sapiens (Human), UniProt Q9NXS2). Put plainly: Assay A: biochemical QPCTL activity assay (MALDI-TOF MS). Particulars: compounds of the invention, Table 2; read-out: Inhibition of QPCTL: IC50. A digest of the protocol:
(§1)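 Compounds preincubated 10 min at 24 °C with enzyme in 20 mM Tris pH 7.5, 0.1 mM TCEP, 0.01% BSA, 0.001% Tween20; CD47 peptide substrate (final 10 μM for QPCTL, 20 μM for QPCT) reacted 40 min at 24 °C. Pyroglutamate product read by MALDI-TOF MS versus internal standard, normalized to controls; four-parameter fit.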

Series [2] deals with QPCT (Homo sapiens (Human), UniProt Q16769). The experiment in a line: Assay A: biochemical QPCT activity assay (MALDI-TOF MS). Particulars: compounds of the invention, Table 2; read-out: Inhibition of QPCT: IC50. In outline:
as §1

For series [3], the system named is SIRPα signalling induced by Raji cells. Put plainly: Assay B: SIRPα signalling assay using Raji cells. The class given is cell-based, human. To be noted: Homo sapiens, compounds of the invention, Table 4, read-out: Inhibition of SIRα signalling induced by Raji cells: IC50. A digest of the protocol:
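SIRPα signalling induced by Raji cells in a PathHunter reporter line, read as β-galactosidase complementation luminescence. Detection reagent 1 added for 15 min, then reagent 2 for 60 min in the dark, both at room temperature.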

For series [4], the system named is SIRPα signalling induced by A549 cells. The experiment in a line: Assay B: SIRPα signalling assay using A549 cells. The class given is cell-based, human. Particulars: Homo sapiens, compounds of the invention, Table 4, read-out: Inhibition of SIRα signalling induced by A549 cells: IC50. A digest of the protocol:
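5000 Raji or A549 cells were cultured 48 h at 37 °C with serially diluted compound (DMSO), then 15000 Jurkat PathHunter SIRPα reporter cells were added for 5 h. Beta-galactosidase luminescence was developed at RT, and IC50 obtained by 4-parameter sigmoidal fit.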

Series [5] in a line: Assay C: permeability in CACO-2 cells. To be noted: human, pH 7.2, compounds of the invention, Table 7; for Papp A→B: Caco-2, apical to basolateral; for efflux ratio: Caco-2. Type of series: in vitro ADME. In outline:
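Compound in transport solution applied to apical or basolateral donor side for A-B or B-A permeability, 3 filter replicates. Donor sampled at start and end, receiver at intervals up to 2 hours with volume replaced; concentrations by HPLC-MS/MS or scintillation counting.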

Sequence of QPCT (Q16769 29-361): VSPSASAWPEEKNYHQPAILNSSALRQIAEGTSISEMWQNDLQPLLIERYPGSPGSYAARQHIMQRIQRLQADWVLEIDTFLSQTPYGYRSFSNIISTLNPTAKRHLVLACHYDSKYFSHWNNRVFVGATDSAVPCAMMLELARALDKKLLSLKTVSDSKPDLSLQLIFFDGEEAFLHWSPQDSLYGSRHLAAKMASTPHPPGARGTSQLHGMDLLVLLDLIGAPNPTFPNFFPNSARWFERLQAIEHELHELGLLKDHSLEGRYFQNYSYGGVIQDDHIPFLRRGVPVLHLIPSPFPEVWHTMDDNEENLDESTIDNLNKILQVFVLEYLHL
Sequence of QPCTL (Q9NXS2 whole entry): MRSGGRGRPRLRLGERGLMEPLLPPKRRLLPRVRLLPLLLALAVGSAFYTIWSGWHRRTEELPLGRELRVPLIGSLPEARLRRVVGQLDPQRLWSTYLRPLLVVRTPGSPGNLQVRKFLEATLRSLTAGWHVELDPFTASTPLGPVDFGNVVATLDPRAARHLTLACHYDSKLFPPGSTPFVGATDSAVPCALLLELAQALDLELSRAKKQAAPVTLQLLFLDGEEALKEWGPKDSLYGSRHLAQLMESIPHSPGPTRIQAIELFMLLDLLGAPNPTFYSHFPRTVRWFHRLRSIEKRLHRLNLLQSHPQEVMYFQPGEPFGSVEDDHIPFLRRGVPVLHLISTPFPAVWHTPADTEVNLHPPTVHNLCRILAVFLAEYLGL

As for `Cn1cnnc1C1(F)CCN(c2c(C#N)cccc2-c2cnn3ncccc23)CC1` [compound 70], the IC50 in series [1] was determined as 5 nM; in series [2], 2 nM; in series [3], 79 nM; in series [4], 74 nM. Further, the Papp A→B in series [5] turned out to be 14 ×10⁻⁶ cm/s. Also, the efflux ratio in series [5] was determined as 2.4.
With `Cn1cnnc1C1(F)CCN(c2c(C#N)cccc2-c2cnc3nc(C(C)(C)C)cn3c2)CC1` [compound 71], the IC50 was 2 nM in series [1], 1 nM in series [2], 49 nM in series [3] and 27 nM in series [4]. Besides, the Papp A→B in series [5] was 2.7 ×10⁻⁶ cm/s. For the same molecule, the efflux ratio in series [5] was 24.4.
In the case of `Cn1cnnc1C1(F)CCN(c2c(C#N)cccc2-c2cnc3nc(C(C)(C)C)nn3c2)CC1` [compound 72], the IC50 in series [1] is 1 nM; in series [2], 1 nM; in series [3], 28 nM; in series [4], 20 nM. Besides, in series [5], the Papp A→B is 3.9 ×10⁻⁶ cm/s. Besides, the efflux ratio in series [5] is 14.4.
Take `Cn1cnnc1C1(F)CCN(c2c(C#N)cccc2-c2cnc3nc(C(F)(F)F)nn3c2)CC1` [compound 73]: the IC50 amounted to 4 nM in series [1], 8 nM in series [2], 261 nM in series [3] and 122 nM in series [4]. Further, the Papp A→B in series [5] worked out at 3.3 ×10⁻⁶ cm/s. The efflux ratio in series [5] amounted to 14.8.
As to `Cn1cnnc1C1(F)CCN(c2c(C#N)cccc2-c2cnc3nc(C(F)(F)F)cn3c2)CC1` [compound 74], the IC50 in series [1] came out at 1 nM; in series [2] it was 1 nM; in series [3] it was 18 nM; in series [4], 26 nM. In series [5], the Papp A→B was 1.7 ×10⁻⁶ cm/s. Further, in series [5], the efflux ratio amounted to 14.1.
Consider `Cn1cnnc1C1(F)CCN(c2c(C#N)cccc2-c2cnc3nn(C(F)(F)F)cc3c2)CC1` [compound 75], for which the IC50 came out at 1 nM in series [1], 1 nM in series [2], 7 nM in series [3] and 7 nM in series [4]. Besides, the Papp A→B in series [5] was found to be 12 ×10⁻⁶ cm/s. The efflux ratio in series [5] came to 4.
Take `Cn1cnnc1C1CCN(c2c(C#N)cccc2-c2cncc3cnn(Cc4ccccc4)c23)CC1` [compound 76]: the IC50 in series [1] was found to be 1 nM; in series [2], 5 nM; in series [3], 40 nM; in series [4], 46 nM. Besides, the Papp A→B in series [5] was 2.6 ×10⁻⁶ cm/s. In addition, the efflux ratio in series [5] turned out to be 22.3.
With `Cn1cnnc1C1CCN(c2c(C#N)cccc2-c2cncc3cn(Cc4ccccc4)nc23)CC1` [compound 77], the IC50 in series [1] was found to be 30 nM; in series [2], 88 nM; in series [3] it was 374 nM; in series [4], 1860 nM. This molecule yielded a Papp A→B in series [5] of 0.7 ×10⁻⁶ cm/s. In addition, the efflux ratio in series [5] worked out at 52.3.
As to `Cn1cnnc1C1(F)CCN(c2c(C#N)cccc2-c2cncc3cn(Cc4ccccc4)nc23)CC1` [compound 78], the IC50 in series [1] was 34 nM; in series [2], 42 nM; in series [3], 456 nM; in series [4], 440 nM. The same molecule registered a Papp A→B in series [5] of 6.5 ×10⁻⁶ cm/s. Moreover, the efflux ratio in series [5] was found to be 7.4.
As for `Cn1cnnc1C1(F)CCN(c2c(C#N)cccc2-c2cnn3nc(-c4cccc(Cl)c4)ccc23)CC1` [compound 79], the IC50 was 2 nM in series [1], 3 nM in series [2], 16 nM in series [3] and 22 nM in series [4]. The same molecule registered a Papp A→B in series [5] of 40 ×10⁻⁶ cm/s. The efflux ratio in series [5] was found to be 0.7.
`Cn1cnnc1C1CCN(c2c(C#N)cccc2-c2cnn3nc(-c4cccc(Cl)c4)ccc23)CC1` [compound 81]: the IC50 in series [1] was determined as 1 nM; in series [2], 5 nM; in series [3], 27 nM; in series [4] it was 27 nM. The Papp A→B in series [5] is 39 ×10⁻⁶ cm/s. Besides, the efflux ratio in series [5] was 0.7.
Take `Cc1cc(-c2cccc(C#N)c2N2CCC(F)(c3nncn3C)CC2)cnc1F` [compound 82]: the IC50 in series [1] stood at 2 nM; in series [2], 3 nM; in series [3] it was 63 nM; in series [4], 17 nM. The molecule also yielded a Papp A→B in series [5] of 41 ×10⁻⁶ cm/s. In addition, in series [5], the efflux ratio came out at 1.6.
